pEC50, pIC50: −log10 of the molar value. Where two headings read alike, the source gives them in different places.
Experiments:
Vγ2Vδ2 T cells = test: gammadelta T cell stimulation (TNF-α release assay); type: cell-based, human
Text: (§1) We then investigated the activity of each compound in inhibiting the FPPS from L. major, in Dictyostelium discoideum growth inhibition and in γδ T cell activation. We used the FPPS from L. major since this enzyme is the putative bisphosphonate target in several trypanosomatid species.

human FPPS = target: T1, human FPPS (Homo sapiens, UniProt P14324); test: human FPPS assay; type: biochemical; details: Table 4; read-out: (2) human FPPS IC50
T1 sequence (P14324 1-419): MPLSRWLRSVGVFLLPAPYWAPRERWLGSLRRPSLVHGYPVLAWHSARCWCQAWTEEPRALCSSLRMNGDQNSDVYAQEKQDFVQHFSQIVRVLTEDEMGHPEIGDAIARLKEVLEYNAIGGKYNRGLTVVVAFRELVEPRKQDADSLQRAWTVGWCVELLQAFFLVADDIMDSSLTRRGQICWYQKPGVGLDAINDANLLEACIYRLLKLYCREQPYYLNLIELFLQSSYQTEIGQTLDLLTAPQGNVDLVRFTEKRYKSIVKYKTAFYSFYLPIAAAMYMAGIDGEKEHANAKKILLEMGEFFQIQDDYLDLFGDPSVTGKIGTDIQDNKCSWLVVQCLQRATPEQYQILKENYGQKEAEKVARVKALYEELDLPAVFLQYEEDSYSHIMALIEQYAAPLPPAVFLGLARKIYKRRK

Dictyostelium discoideum = test: D. discoideum cell growth inhibition; type: cell-based
Text: as §1

[1] = Table 4, read-out: (3) gammadelta T cell stimulation EC50
[2] = Table 4, read-out: (1) D. discoideum IC50
[3] = TNF-α release, Table 1 and text, read-out: gammadelta T cell stimulation, EC50
[4] = Table 3, additional testing, read-out: gammadelta T cell stimulation EC50
[5] = cell growth inhibition, Table 1 and text, read-out: D. discoideum IC50

Row | SMILES | pEC50 (Vγ2Vδ2 T cells; [1]) | pIC50 (Dictyostelium discoideum; [2]) | also measured
1 | O=P([O-])(O)C(C[n+]1cccc(Cl)c1)P(=O)(O)O (centres unmarked) [Compound 526] | 5.07 | 5.68 | pIC50 (human FPPS): 5.92
2 | O=P([O-])(O)C(O)(C[n+]1ccc(Cc2ccccc2)cc1)P(=O)(O)O (centres unmarked) [Compound 443] | 3.64 | 4.92 | activity in gammadelta T cell stimulation (Vγ2Vδ2 T cells; TNF-α release): poor activity; pEC50 (Vγ2Vδ2 T cells; [3]): 3.64; pEC50 (Vγ2Vδ2 T cells; [4]): 3.73; pIC50 (Dictyostelium discoideum; [5]): 4.92
3 | O=P([O-])(O)C(C[n+]1cccc(Br)c1)P(=O)(O)O (centres unmarked) [Compound 483] |  |  | pEC50 (Vγ2Vδ2 T cells; Homo sapiens, T-cell, read-out: gammadelta T cell stimulation EC50): 5.54; pIC50 (Dictyostelium discoideum; Dictyostelium discoideum, read-out: (1) D. discoideum IC50): 5.60
4 | O=P([O-])(O)C(C[n+]1cccc(C(F)(F)F)c1)P(=O)(O)O (centres unmarked) [Compound 511] | 4.85 | 5.39 | pIC50 (human FPPS): 5.60
5 | CC([n+]1ccccc1)C(O)(P(=O)([O-])O)P(=O)(O)O (single isomer, unassigned) [Compound 583] | 4.30 | 4.85 | 
6 | CC(C)=CCc1ccc[n+](CC(P(=O)([O-])O)P(=O)(O)O)c1 (centres unmarked) [Compound 599] | 4.16 | 5.77 | 
7 | O=P([O-])(O)C(O)(C[n+]1cccc2cc(Cl)ccc21)P(=O)(O)O (centres unmarked) [Compound 447] | 4.28 | 4.14 | pEC50 (Vγ2Vδ2 T cells; [3]): 4.28; pIC50 (Dictyostelium discoideum; [5]): 4.14
8 | O=P([O-])(O)C(O)(C[n+]1cccc(-c2cccc(-c3ccccc3)c2)c1)P(=O)(O)O (centres unmarked) [Compound 364] | < 3.00 |  | pEC50 (Vγ2Vδ2 T cells; [3]): < 3.00; pIC50 (human FPPS): 4.43
9 | O=C(c1ccccc1)c1ccc[n+](CC(P(=O)([O-])O)P(=O)(O)O)c1 (centres unmarked) [Compound 530] | 2.19 | 3.72 | 
10 | O=P([O-])(O)C(C[n+]1cccc(-c2ccccc2)c1)P(=O)(O)O (centres unmarked) [Compound 472] |  | 5.60 | pEC50 (Vγ2Vδ2 T cells; [4]): 5.68
11 | Cc1ccc2ccc[n+](CC(O)(P(=O)([O-])O)P(=O)(O)O)c2c1 (centres unmarked) [Compound 457] | 2.72 | 4.85 | 
12 | Cc1ccc[n+](CC(P(=O)([O-])O)P(=O)(O)O)c1 (centres unmarked) [Compound 474] |  | 5.36 | pEC50 (Vγ2Vδ2 T cells; [4]): 5.62
13 | O=P([O-])(O)C(C[n+]1ccccc1)P(=O)(O)O (centres unmarked) [Compound 470] |  | 5.46 | pEC50 (Vγ2Vδ2 T cells; [4]): 5.48
14 | O=P([O-])(O)C(O)(C[n+]1cccc(I)c1)P(=O)(O)O (centres unmarked) [Compound 582] |  | 5.46 | pIC50 (human FPPS): 5.80
15 | Cc1cc(C)c[n+](CC(O)(P(=O)([O-])O)P(=O)(O)O)c1 (centres unmarked) [Compound 459] | 4.85 | 4.57 | 
16 | CN(C)c1cc[n+](CC(O)(P(=O)([O-])O)P(=O)(O)O)cc1 (centres unmarked) [Compound 451] |  | 4.51 | (3) gammadelta T cell stimulation EC50 (Vγ2Vδ2 T cells; Table 4): inactive; pIC50 (human FPPS): 3.55
17 | CC([n+]1ccccc1)C(O)(P(=O)([O-])O)P(=O)(O)O (single isomer, unassigned) [Compound 591] |  | 4.42 | pIC50 (human FPPS): 4.54
18 | Cc1ccc2c(ccc[n+]2CC(O)(P(=O)([O-])O)P(=O)(O)O)c1 (centres unmarked) [Compound 452] | 3.60 | 4.14 | 
19 | COc1ccc[n+](CC(O)(P(=O)([O-])O)P(=O)(O)O)c1 (centres unmarked) [Compound 479] | 4.82 |  | 
20 | O=P([O-])(O)C(O)(C[n+]1ccc2ccccc2c1)P(=O)(O)O (centres unmarked) [Compound 398] | 4.39 | 4.70 | pEC50 (Vγ2Vδ2 T cells; [3]): 4.39; pEC50 (Vγ2Vδ2 T cells; [4]): 4.39; pIC50 (Dictyostelium discoideum; [5]): 4.70
21 | O=P([O-])(O)C(O)(C[n+]1cccc(-c2ccc(F)cc2)c1)P(=O)(O)O (centres unmarked) [Compound 462] | 4.82 | 5.57 | 
22 | CCc1ccc[n+](CC(P(=O)([O-])O)P(=O)(O)O)c1 (centres unmarked) [Compound 475] |  | 5.39 | pEC50 (Vγ2Vδ2 T cells; [4]): 5.55
23 | O=P([O-])(O)C(O)(C[n+]1cccc(-c2ccc(C(F)(F)F)cc2)c1)P(=O)(O)O (centres unmarked) [Compound 449] | 4.92 | 5.40 | 
24 | O=P([O-])(O)C(O)(C[n+]1cc(F)cc(-c2ccccc2)c1)P(=O)(O)O (centres unmarked) [Compound 534] | 4.80 |  | 
25 | O=P([O-])(O)C(C[n+]1ccccc1F)P(=O)(O)O (centres unmarked) [Compound 521] | 3.10 | 3.24 | 
26 | CCCCC#Cc1ccc[n+](CC(P(=O)([O-])O)P(=O)(O)O)c1 (centres unmarked) [Compound 597] | 4.24 |  | pIC50 (human FPPS): 5.72
27 | O=P([O-])(O)C(C[n+]1ccc(-n2nnc3ccccc32)cc1)P(=O)(O)O (centres unmarked) [Compound 531] |  | 4.70 | (3) gammadelta T cell stimulation EC50 (Vγ2Vδ2 T cells; Table 4): inactive
28 | Cc1cc[n+](CC(O)(P(=O)([O-])O)P(=O)(O)O)cc1C (centres unmarked) [Compound 460] | 4.89 | 4.85 | 
29 | O=P([O-])(O)C(C[n+]1cccc(S(=O)(=O)N2CCCC2)c1)P(=O)(O)O (centres unmarked) [Compound 502] |  | 4.00 | (3) gammadelta T cell stimulation EC50 (Vγ2Vδ2 T cells; Table 4): inactive
30 | O=P([O-])(O)C(O)(C[n+]1ccc(-c2ccccc2)cc1)P(=O)(O)O (centres unmarked) [Compound 478] |  | 3.12 | (3) gammadelta T cell stimulation EC50 (Vγ2Vδ2 T cells; Table 4): inactive
